The test has as its target T1, P2X7 receptor (Homo sapiens, UniProt Q99572).
T1 construct: host or cells: THP-1 cells differentiated with LPS and IFN-γ
T1 sequence (Q99572 1-595): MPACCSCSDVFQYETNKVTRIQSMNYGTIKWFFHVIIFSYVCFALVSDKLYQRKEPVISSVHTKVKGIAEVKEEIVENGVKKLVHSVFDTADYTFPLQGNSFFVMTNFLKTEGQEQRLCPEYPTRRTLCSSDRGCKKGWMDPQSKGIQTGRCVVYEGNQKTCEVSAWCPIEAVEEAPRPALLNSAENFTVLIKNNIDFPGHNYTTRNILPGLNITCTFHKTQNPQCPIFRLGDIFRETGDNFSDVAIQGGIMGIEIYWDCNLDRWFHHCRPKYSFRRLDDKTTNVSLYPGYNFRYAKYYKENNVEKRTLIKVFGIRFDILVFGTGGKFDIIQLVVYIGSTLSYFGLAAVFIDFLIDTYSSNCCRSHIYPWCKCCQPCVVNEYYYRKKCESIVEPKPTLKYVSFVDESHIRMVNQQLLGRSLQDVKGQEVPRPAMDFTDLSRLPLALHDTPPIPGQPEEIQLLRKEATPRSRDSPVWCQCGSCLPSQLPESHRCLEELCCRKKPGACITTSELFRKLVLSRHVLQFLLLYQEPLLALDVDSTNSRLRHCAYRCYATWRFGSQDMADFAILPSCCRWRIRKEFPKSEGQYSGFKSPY
Briefly: IL-1β release assay in differentiated THP-1 cells stimulated with BzATP (Example 9). In kind it is cell-based. Also noted: inhibition: dose or concentration left out as unconfirmed. As to conditions: for inhibition at 0.3 µM: 0.3 μM compound, read-out: IL-1β % Inhib. @ 0.3 μM; for inhibition at 0.3 µM / inhibition at 0.1 µM: differentiated THP-1 cells, BzATP 250 uM; for IC50: THP-1 cells, BzATP-stimulated IL-1β release, four parameter logistic fit; for inhibition: THP-1, read-out: IL-1β % Inhib.; for inhibition at 0.1 µM: 0.1 μM compound. In outline: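 IC50 derived by four-parameter logistic fit of percent inhibition of IL-1β release, measured by ELISA after 45 min stimulation with 250 uM BzATP. Cells: THP-1 differentiated 16 h with 100 ng/mL LPS plus IFN-γ, LPS-primed 2 h, compound added 30 min beforehand.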

Where [1] appears, read: symbols * to ****, read-out: IL-1β % Inhib. (asterisk symbols: at 0.1 μM).
Setting [2] is: '*' class symbols, read-out: IL-1β % Inhib. (asterisk classes, 0.1 μM).

By IC50 is commonly meant the concentration that gives 50% inhibition.

Like-named read-outs stand apart in the source and are kept apart here. Where only a bound is given, the exact number is not on record here.

`Cn1ccc2c(NC(=O)CC3CCCCCC3)cccc2c1=O` [Compound 1024, 2-Cycloheptyl-N-(2-methyl-1-oxo-1,2-dihydro-isoquinolin-5-yl)-acetamide] displayed an IC50 of 31.5 nM. Besides, the inhibition at 0.3 µM ('+' class symbols) was at least 76%.
Turning to `CC(C)Cc1ccc(C(=O)Nc2cccc3c(=O)n(C)ccc23)cc1` [Compound 1425], the inhibition is 0 to 25%.
Regarding `CC(=O)OCCn1ccc2c(NC(=O)Cc3ccc(C(F)(F)F)cc3C(F)(F)F)cccc2c1=O` [Compound 1617], the IC50 stood at 417 nM. Besides, the inhibition at 0.3 µM ("+" class symbols) was in the range of 26 to 50%.
On to `CC(=O)OCCn1ccc2c(NC(=O)Cc3ccc4c(c3)OCCO4)cccc2c1=O` [Compound 1377], for which the IC50 was above 1000 nM. For the same compound, the inhibition at 0.3 µM (symbols + to ++++) was in the range of 0 to 25%.
On to `COCCn1ccc2c(NC(=O)Cc3ccccc3C)cccc2c1=O` [Compound 1438], for which the inhibition was 26 to 50%.
As to `O=C(CCc1ccc2c(c1)OCO2)Nc1cccc2c(=O)n(Cc3ccc(OC(F)(F)F)cc3)ccc12` [Compound 1558], the inhibition was in the range of 0 to 25%.
In the case of `COc1ccc(CC(=O)Nc2cccc3c(=O)n(CC4CCOCC4)ccc23)c(OC)c1` [Compound 1123], for the setting “'+' class symbols”, the inhibition at 0.3 µM is 0 to 25%.
With `COc1ccc(CCC(=O)Nc2cccc3c(=O)n(CCN4CCOCC4)ccc23)cc1` [Compound 1202], the inhibition at 0.3 µM (symbols + to ++++) was 0 to 25%.
For `O=C(Nc1cccc2c(=O)n(Cc3cccnc3)ccc12)c1cccc2c1OCCO2` [Compound 1363], under “symbols + to ++++”, the inhibition at 0.3 µM fell in the range of 0 to 25%.
With `COc1ccccc1CCC(=O)Nc1cccc2c(=O)n(CCN3CCOCC3)ccc12` [Compound 1201], the inhibition at 0.1 µM under setting [1] fell in the range of 0 to 25%.
With `CN(C)CCn1ccc2c(NC(=O)CCc3cccc(Cl)c3)cccc2c1=O` [Compound 1186], the inhibition at 0.3 µM ('+' class symbols) fell in the range of 51 to 75%.
As to `CN1CCC(Cn2ccc3c(NC(=O)c4ccc(Cl)cc4Cl)cccc3c2=O)CC1` [Compound 1460], the inhibition fell in the range of 0 to 25%.
Turning to `COc1ccc(CC(=O)Nc2cccc3c(=O)n(Cc4ccc(OC(F)(F)F)cc4)ccc23)cc1C` [Compound 1605], the inhibition at 0.1 µM ("*" class symbols, read-out: IL-1β % Inhib. ("*" symbols: at 0.1 μM)) is 0 to 25%.
Consider `COc1ccc(CC(=O)Nc2cccc3c(=O)n(CCN4CCOCC4)ccc23)cc1` [Compound 1212], for which the inhibition at 0.3 µM (symbols + to ++++) was 0 to 25%.
`COCCn1ccc2c(NC(=O)CC3(O)CC(C)(C)CC(C)(C)C3)cccc2c1=O` [Compound 1393] returned an IC50 of 77.8 nM. Besides, for the setting “symbols + to ++++”, the inhibition at 0.3 µM was at least 76%.
In the case of `CC(C)(C)Cn1ccc2c(NC(=O)CCCc3ccccc3)cccc2c1=O` [Compound 1263], under “symbols + to ++++”, the inhibition at 0.3 µM lay within 0 to 25%.
Regarding `Cc1ccc(C(=O)Nc2cccc3c(=O)n(CC4CCOCC4)ccc23)cc1Cl` [Compound 1113], the inhibition at 0.3 µM ('+' class symbols) fell in the range of 0 to 25%.
Turning to `COCCn1ccc2c(NC(=O)Cc3ccc(OC)c(C)c3)cccc2c1=O` [Compound 1337], the inhibition at 0.3 µM (symbols + to ++++) fell in the range of 0 to 25%.
Consider `O=C1CCCN1CCCn1ccc2c(NC(=O)[C@@]34C[C@@H]5C[C@@H](C[C@@H]3C5)C4)cccc2c1=O` [Compound 1532], for which the inhibition fell in the range of 0 to 25%.
On to `CC(C)(C)Cn1ccc2c(NC(=O)c3ccc4ccccc4c3)cccc2c1=O` [Compound 1251], for which the inhibition at 0.3 µM (symbols + to ++++) fell in the range of 0 to 25%.
Take `COCCn1ccc2c(NC(=O)[C@H]3C[C@@H]4CC[C@H]3C4)cccc2c1=O` [Compound 1332]: for the setting “symbols + to ++++”, the inhibition at 0.3 µM was in the range of 0 to 25%.
In the case of `O=C(Nc1cccc2c(=O)n(Cc3ccc(OC(F)(F)F)cc3)ccc12)c1cc2ccccc2o1` [Compound 1587], the inhibition was in the range of 0 to 25%.
Take `Cc1cc(C)c(CC(=O)Nc2cccc3c(=O)n(Cc4cccnc4)ccc23)c(C)c1` [Compound 1076]: under “'+' class symbols”, the inhibition at 0.3 µM was 0 to 25%.
For `COCCn1ccc2c(NC(=O)CCc3cccc(OC)c3)cccc2c1=O` [Compound 1064], the inhibition at 0.1 µM under setting [2] lay within 0 to 25%.
Take `COc1ccc(CC(=O)Nc2cccc3c(=O)n(CCN4CCOCC4)ccc23)c(OC)c1` [Compound 1230]: the inhibition at 0.3 µM (symbols + to ++++) fell in the range of 0 to 25%.
`CC(=O)OCCn1ccc2c(NC(=O)C3CCN(C(=O)OC(C)(C)C)CC3)cccc2c1=O` [Compound 1012] had an IC50 of 422 nM. Also, for the setting “'+' class symbols”, the inhibition at 0.3 µM fell in the range of 26 to 50%.
Turning to `CC(C)(C)c1ccc(C(=O)Nc2cccc3c(=O)n(CCN4CCOCC4)ccc23)cc1` [Compound 1199], the inhibition at 0.1 µM under setting [1] lay within 0 to 25%.
`Cc1cccc(C(=O)Nc2cccc3c(=O)n(CC4CCN(C)CC4)ccc23)c1` [Compound 1465]: the inhibition was 0 to 25%.
For the compound `CC(C)(C)Cn1ccc2c(NC(=O)C3C[C@@H]4CC[C@H]3C4)cccc2c1=O` (stereo partly shown) [Compound 1277], the inhibition at 0.3 µM (symbols + to ++++) was at least 76%.
For the compound `COc1ccc(CCC(=O)Nc2cccc3c(=O)n(C)ccc23)cc1` [Compound 1293], the inhibition at 0.3 µM (symbols + to ++++) was in the range of 0 to 25%.
Take `O=C(Nc1cccc2c(=O)n(CCCN3CCCC3=O)ccc12)c1ccc(Cl)cc1Cl` [Compound 1505]: the inhibition is 26 to 50%.
Turning to `CC(c1ccccn1)n1ccc2c(NC(=O)Cc3cccc(C(F)(F)F)c3F)cccc2c1=O` (stereo not shown) [Compound 1633, 2-(2-Fluoro-3-trifluoromethyl-phenyl)-N-[1-oxo-2-(1-pyridin-2-yl-ethyl)-1,2-dihydro-isoquinolin-5-yl]-acetamide], the half-inhibitory concentration (IC50) was 25.5 nM. Further, the inhibition at 0.3 µM ("+" class symbols) was at least 76%.
For `O=C(Cc1ccc(Cl)c(C(F)(F)F)c1)Nc1cccc2c(=O)n(Cc3ccc(C(F)(F)F)nc3)ccc12` [Compound 1624, 2-(4-Chloro-3-trifluoromethyl-phenyl)-N-[1-oxo-2-(6-trifluoromethyl-pyridin-3-ylmethyl)-1,2-dihydro-isoquinolin-5-yl]-acetamide] the same measures were 365 nM and 26 to 50%.
With `CN(C)CCn1ccc2c(NC(=O)Cc3cccc4ccccc34)cccc2c1=O` [Compound 1152], under “'+' class symbols”, the inhibition at 0.3 µM lay in the range of 0 to 25%.
Take `COc1cccc(CCC(=O)Nc2cccc3c(=O)n(CC4CCOCC4)ccc23)c1` [Compound 1027]: the inhibition at 0.3 µM ('+' class symbols) was 0 to 25%.
For the compound `O=C(Nc1cccc2c(=O)n(CCN3CCOCC3)ccc12)c1cccc2c1OCCO2` [Compound 1224], the inhibition at 0.3 µM (symbols + to ++++) lay within 0 to 25%.
As to `CN(C)CCn1ccc2c(NC(=O)c3ccc(-c4ccccc4)o3)cccc2c1=O` [Compound 1035], the inhibition at 0.1 µM under setting [2] was in the range of 0 to 25%.
Turning to `COc1ccc(C(=O)Nc2cccc3c(=O)n(CC4CCOCC4)ccc23)cc1Cl` [Compound 1029], the inhibition at 0.3 µM ('+' class symbols) is 0 to 25%.
With `COCCn1ccc2c(NC(=O)CCc3cccc(Cl)c3)cccc2c1=O` [Compound 1342], the inhibition at 0.3 µM (symbols + to ++++) was in the range of 0 to 25%.
As for `O=C(Nc1cccc2c(=O)n(CCCN3CCCC3=O)ccc12)C(O)c1ccccc1Cl` (stereo not shown) [Compound 1531], the inhibition was in the range of 26 to 50%.
Same read-out and setting: for `O=C(Nc1cccc2c(=O)n(Cc3cccnc3)ccc12)c1cc(Cl)cc(Cl)c1` [Compound 1443] the value was 0 to 25%.
As to `O=C(Cc1csc2ccccc12)Nc1cccc2c(=O)n(CCN3CCOCC3)ccc12` [Compound 1226], the inhibition at 0.3 µM (symbols + to ++++) fell in the range of 0 to 25%.
Consider `COCCn1ccc2c(NC(=O)CCc3ccccc3OC)cccc2c1=O` [Compound 1432], for which the inhibition is 0 to 25%.
Take `COCCn1ccc2c(NC(=O)Cc3cccc4ccccc34)cccc2c1=O` [Compound 1433]: the inhibition was 0 to 25%.
As for `O=C(CC1C[C@@H]2CC[C@H]1C2)Nc1cccc2c(=O)n(CC3CCOCC3)ccc12` (stereo partly shown) [Compound 1115], the inhibition at 0.3 µM ('+' class symbols) is 26 to 50%.
Regarding `COc1ccc(C(=O)Nc2cccc3c(=O)n(CCN(C)C)ccc23)c(C)c1` [Compound 1398], the inhibition fell in the range of 0 to 25%.
Take `COc1ccccc1CC(=O)Nc1cccc2c(=O)n(CC(C)(C)C)ccc12` [Compound 1254]: where the note is “symbols + to ++++”, the inhibition at 0.3 µM was in the range of 0 to 25%.
Turning to `O=C(Nc1cccc2c(=O)n(CCN3CCOCC3)ccc12)c1ccc2ccccc2c1` [Compound 1411], the inhibition was in the range of 0 to 25%.
With `Cc1cccc(C(=O)Nc2cccc3c(=O)n(CC4CCN(C)CC4)ccc23)c1Cl` [Compound 1489], the inhibition was 0 to 25%.
On to `CC(C(=O)Nc1cccc2c(=O)n(CC3CCN(C)CC3)ccc12)c1ccccc1` (stereo not shown) [Compound 1466], for which the inhibition was 0 to 25%.
For `COc1ccc(OC)c(CC(=O)Nc2cccc3c(=O)n(Cc4ccc(OC(F)(F)F)cc4)ccc23)c1` [Compound 1578], the inhibition lay in the range of 0 to 25%.
Consider `CCOc1cccc(C(=O)Nc2cccc3c(=O)n(CCN4CCOCC4)ccc23)c1` [Compound 1044], for which the inhibition at 0.3 µM ('+' class symbols) was in the range of 0 to 25%.
The compound `CN(C)CCn1ccc2c(NC(=O)Cc3ccc(Cl)c(Cl)c3)cccc2c1=O` [Compound 1386] yielded a half-inhibitory concentration (IC50) of 238 nM. Besides, the inhibition at 0.3 µM (symbols + to ++++) was 51 to 75%.

These data come from patent US8546579B2, “Bicycloheteroaryl compounds as P2X7 modulators and uses thereof” (Evotec (US) Inc., priority 2006, dated 2013).
